ChEMBL document CHEMBL5131495, “Discovery of unique thiazolidinone-conjugated coumarins as novel broad spectrum antibacterial agents” (Eur J Med Chem, 2022)
≈ marks a conversion by molar mass, not a printed value.

Assays:
Assay type in all cases: functional
Staphylococcus aureus [1] = assay: Antibacterial activity against Staphylococcus aureus assessed as inhibition of bacterial growth
Acinetobacter baumannii = assay: Antibacterial activity against Acinetobacter baumannii assessed as inhibition of bacterial growth
Staphylococcus aureus [2] = assay: Antibacterial activity against Staphylococcus aureus ATCC 29213 assessed as inhibition of bacterial growth
Klebsiella pneumoniae = assay: Antibacterial activity against Klebsiella pneumoniae assessed as inhibition of bacterial growth
Staphylococcus aureus [3] = assay: Antibacterial activity against Staphylococcus aureus ATCC 25923 assessed as inhibition of bacterial growth
Pseudomonas aeruginosa [4] = assay: Antibacterial activity against Pseudomonas aeruginosa ATCC 27853 assessed as inhibition of bacterial growth
Staphylococcus aureus [5] = assay: Antibacterial activity against methicillin resistant Staphylococcus aureus N315 assessed as inhibition of bacterial growth
Escherichia coli [6] = assay: Antibacterial activity against Escherichia coli assessed as inhibition of bacterial growth
Enterococcus faecalis = assay: Antibacterial activity against Enterococcus faecalis assessed as inhibition of bacterial growth
Escherichia coli [7] = assay: Antibacterial activity against Escherichia coli ATCC 25922 assessed as inhibition of bacterial growth
Pseudomonas aeruginosa [8] = assay: Antibacterial activity against Pseudomonas aeruginosa assessed as inhibition of bacterial growth

With `Cc1cc(=O)oc2cc(/N=C3/S/C(=C\c4ccc(F)cc4)C(=O)N3CCO)ccc12` the MIC (Staphylococcus aureus [1]) was 64 µg/mL (≈ 151 µM), the MIC (Acinetobacter baumannii) was 4 µg/mL (≈ 9.42 µM) and the MIC (Staphylococcus aureus [2]) was 16 µg/mL (≈ 37.7 µM). It also gave an MIC (Klebsiella pneumoniae) of 256 µg/mL (≈ 603 µM), an MIC (Staphylococcus aureus [3]) of 128 µg/mL (≈ 302 µM) and an MIC (Pseudomonas aeruginosa [4]) of 64 µg/mL (≈ 151 µM). For the same compound, the MIC (Staphylococcus aureus [5]) was 64 µg/mL (≈ 151 µM), the MIC (Escherichia coli [6]) was 128 µg/mL (≈ 302 µM) and the MIC (Enterococcus faecalis) was 32 µg/mL (≈ 75.4 µM). It also gave an MIC (Escherichia coli [7]) of 128 µg/mL (≈ 302 µM) and an MIC (Pseudomonas aeruginosa [8]) of 32 µg/mL (≈ 75.4 µM).
For `COc1ccc(/C=C2\S/C(=N/c3ccc4c(C)cc(=O)oc4c3)N(CCO)C2=O)cc1`, the MIC (Staphylococcus aureus [1]) was 32 µg/mL (≈ 73.3 µM), the MIC (Acinetobacter baumannii) was 8 µg/mL (≈ 18.3 µM) and the MIC (Staphylococcus aureus [2]) was 0.5 µg/mL (≈ 1.15 µM). The MIC (Klebsiella pneumoniae) was 128 µg/mL (≈ 293 µM), the MIC (Staphylococcus aureus [3]) was 32 µg/mL (≈ 73.3 µM) and the MIC (Pseudomonas aeruginosa [4]) was 128 µg/mL (≈ 293 µM). The MIC (Staphylococcus aureus [5]) was 4 µg/mL (≈ 9.16 µM), the MIC (Escherichia coli [6]) was 32 µg/mL (≈ 73.3 µM) and the MIC (Enterococcus faecalis) was 8 µg/mL (≈ 18.3 µM). It also gave an MIC (Escherichia coli [7]) of 128 µg/mL (≈ 293 µM) and an MIC (Pseudomonas aeruginosa [8]) of 64 µg/mL (≈ 147 µM).
In the case of `Cc1cc(=O)oc2cc(/N=C3/S/C(=C\c4ccc(Cl)cc4Cl)C(=O)N3CCO)ccc12`, the MIC (Staphylococcus aureus [1]) is reported as 256 µg/mL (≈ 539 µM), the MIC (Acinetobacter baumannii) is reported as 4 µg/mL (≈ 8.41 µM) and the MIC (Staphylococcus aureus [2]) is reported as 128 µg/mL (≈ 269 µM). The MIC (Klebsiella pneumoniae) was 64 µg/mL (≈ 135 µM), the MIC (Staphylococcus aureus [3]) was 128 µg/mL (≈ 269 µM) and the MIC (Pseudomonas aeruginosa [4]) was 128 µg/mL (≈ 269 µM). The MIC (Staphylococcus aureus [5]) was 32 µg/mL (≈ 67.3 µM), the MIC (Escherichia coli [6]) was 256 µg/mL (≈ 539 µM) and the MIC (Enterococcus faecalis) was 128 µg/mL (≈ 269 µM). It also gave an MIC (Escherichia coli [7]) of 256 µg/mL (≈ 539 µM) and an MIC (Pseudomonas aeruginosa [8]) of 64 µg/mL (≈ 135 µM).
`Cc1cc(=O)oc2cc(/N=C3/S/C(=C\c4ncc[nH]4)C(=O)N3CCO)ccc12` showed an MIC (Staphylococcus aureus [1]) of 8 µg/mL (≈ 20.2 µM), an MIC (Acinetobacter baumannii) of 16 µg/mL (≈ 40.4 µM) and an MIC (Staphylococcus aureus [2]) of 32 µg/mL (≈ 80.7 µM). It also gave an MIC (Klebsiella pneumoniae) of 16 µg/mL (≈ 40.4 µM), an MIC (Staphylococcus aureus [3]) of 128 µg/mL (≈ 323 µM) and an MIC (Pseudomonas aeruginosa [4]) of 128 µg/mL (≈ 323 µM). The MIC (Staphylococcus aureus [5]) was 64 µg/mL (≈ 161 µM), the MIC (Escherichia coli [6]) was 32 µg/mL (≈ 80.7 µM) and the MIC (Enterococcus faecalis) was 64 µg/mL (≈ 161 µM). It also gave an MIC (Escherichia coli [7]) of 64 µg/mL (≈ 161 µM) and an MIC (Pseudomonas aeruginosa [8]) of 32 µg/mL (≈ 80.7 µM).
Compound `Cc1cc(=O)oc2cc(/N=C3/S/C(=C\c4cccs4)C(=O)N3CCO)ccc12` has an MIC (Staphylococcus aureus [1]) of 4 µg/mL (≈ 9.7 µM), an MIC (Acinetobacter baumannii) of 1 µg/mL (≈ 2.42 µM) and an MIC (Staphylococcus aureus [2]) of 1 µg/mL (≈ 2.42 µM). It also gave an MIC (Klebsiella pneumoniae) of 64 µg/mL (≈ 155 µM), an MIC (Staphylococcus aureus [3]) of 32 µg/mL (≈ 77.6 µM) and an MIC (Pseudomonas aeruginosa [4]) of 1 µg/mL (≈ 2.42 µM). It also gave an MIC (Staphylococcus aureus [5]) of 128 µg/mL (≈ 310 µM), an MIC (Escherichia coli [6]) of 32 µg/mL (≈ 77.6 µM) and an MIC (Enterococcus faecalis) of 4 µg/mL (≈ 9.7 µM). It also gave an MIC (Escherichia coli [7]) of 32 µg/mL (≈ 77.6 µM) and an MIC (Pseudomonas aeruginosa [8]) of 16 µg/mL (≈ 38.8 µM).
`CCn1cc(C(=O)O)c(=O)c2cc(F)c(N3CCNCC3)cc21` [NORFLOXACIN] gave an MIC (Staphylococcus aureus [1]) of 2 µg/mL (≈ 6.26 µM), an MIC (Acinetobacter baumannii) of 4 µg/mL (≈ 12.5 µM) and an MIC (Staphylococcus aureus [2]) of 2 µg/mL (≈ 6.26 µM). It also gave an MIC (Klebsiella pneumoniae) of 4 µg/mL (≈ 12.5 µM), an MIC (Staphylococcus aureus [3]) of 4 µg/mL (≈ 12.5 µM) and an MIC (Pseudomonas aeruginosa [4]) of 4 µg/mL (≈ 12.5 µM). The MIC (Staphylococcus aureus [5]) was 4 µg/mL (≈ 12.5 µM), the MIC (Escherichia coli [6]) was 2 µg/mL (≈ 6.26 µM) and the MIC (Enterococcus faecalis) was 4 µg/mL (≈ 12.5 µM). For the same compound, the MIC (Escherichia coli [7]) was 4 µg/mL (≈ 12.5 µM) and the MIC (Pseudomonas aeruginosa [8]) was 1 µg/mL (≈ 3.13 µM).
Work on `Cc1cc(=O)oc2cc(/N=C3/S/C(=C\c4ccc(C(F)(F)F)cc4)C(=O)N3CCO)ccc12` yielded an MIC (Staphylococcus aureus [1]) of 128 µg/mL (≈ 270 µM), an MIC (Acinetobacter baumannii) of 32 µg/mL (≈ 67.4 µM) and an MIC (Staphylococcus aureus [2]) of 256 µg/mL (≈ 540 µM). The MIC (Klebsiella pneumoniae) was 128 µg/mL (≈ 270 µM), the MIC (Staphylococcus aureus [3]) was 64 µg/mL (≈ 135 µM) and the MIC (Pseudomonas aeruginosa [4]) was 256 µg/mL (≈ 540 µM). For the same compound, the MIC (Staphylococcus aureus [5]) was 256 µg/mL (≈ 540 µM), the MIC (Escherichia coli [6]) was 128 µg/mL (≈ 270 µM) and the MIC (Enterococcus faecalis) was 256 µg/mL (≈ 540 µM). The MIC (Escherichia coli [7]) was 256 µg/mL (≈ 540 µM) and the MIC (Pseudomonas aeruginosa [8]) was 32 µg/mL (≈ 67.4 µM).
In the case of `Cc1cc(=O)oc2cc(/N=C3/S/C(=C\c4cccc(Cl)c4)C(=O)N3CCO)ccc12`, the MIC (Staphylococcus aureus [1]) is reported as 32 µg/mL (≈ 72.6 µM), the MIC (Acinetobacter baumannii) is reported as 4 µg/mL (≈ 9.07 µM) and the MIC (Staphylococcus aureus [2]) is reported as 32 µg/mL (≈ 72.6 µM). It also gave an MIC (Klebsiella pneumoniae) of 32 µg/mL (≈ 72.6 µM), an MIC (Staphylococcus aureus [3]) of 8 µg/mL (≈ 18.1 µM) and an MIC (Pseudomonas aeruginosa [4]) of 1 µg/mL (≈ 2.27 µM). For the same compound, the MIC (Staphylococcus aureus [5]) was 8 µg/mL (≈ 18.1 µM), the MIC (Escherichia coli [6]) was 32 µg/mL (≈ 72.6 µM) and the MIC (Enterococcus faecalis) was 32 µg/mL (≈ 72.6 µM). For the same compound, the MIC (Escherichia coli [7]) was 64 µg/mL (≈ 145 µM) and the MIC (Pseudomonas aeruginosa [8]) was 2 µg/mL (≈ 4.54 µM).
`Cc1cc(=O)oc2cc(/N=C3/S/C(=C\c4ccc([N+](=O)[O-])cc4)C(=O)N3CCO)ccc12` was tested, and the MIC (Staphylococcus aureus [1]) was 64 µg/mL (≈ 142 µM), the MIC (Acinetobacter baumannii) was 32 µg/mL (≈ 70.9 µM) and the MIC (Staphylococcus aureus [2]) was 64 µg/mL (≈ 142 µM). The MIC (Klebsiella pneumoniae) was 64 µg/mL (≈ 142 µM), the MIC (Staphylococcus aureus [3]) was 128 µg/mL (≈ 284 µM) and the MIC (Pseudomonas aeruginosa [4]) was 128 µg/mL (≈ 284 µM). For the same compound, the MIC (Staphylococcus aureus [5]) was 32 µg/mL (≈ 70.9 µM), the MIC (Escherichia coli [6]) was 128 µg/mL (≈ 284 µM) and the MIC (Enterococcus faecalis) was 32 µg/mL (≈ 70.9 µM). It also gave an MIC (Escherichia coli [7]) of 64 µg/mL (≈ 142 µM) and an MIC (Pseudomonas aeruginosa [8]) of 64 µg/mL (≈ 142 µM).
For `Cc1cc(=O)oc2cc(/N=C3/S/C(=C\c4ccccc4F)C(=O)N3CCO)ccc12`, the MIC (Staphylococcus aureus [1]) was 1 µg/mL (≈ 2.36 µM), the MIC (Acinetobacter baumannii) was 16 µg/mL (≈ 37.7 µM) and the MIC (Staphylococcus aureus [2]) was 64 µg/mL (≈ 151 µM). The MIC (Klebsiella pneumoniae) was 32 µg/mL (≈ 75.4 µM), the MIC (Staphylococcus aureus [3]) was 32 µg/mL (≈ 75.4 µM) and the MIC (Pseudomonas aeruginosa [4]) was 1 µg/mL (≈ 2.36 µM). For the same compound, the MIC (Staphylococcus aureus [5]) was 4 µg/mL (≈ 9.42 µM), the MIC (Escherichia coli [6]) was 32 µg/mL (≈ 75.4 µM) and the MIC (Enterococcus faecalis) was 0.25 µg/mL (≈ 0.589 µM). It also gave an MIC (Escherichia coli [7]) of 16 µg/mL (≈ 37.7 µM) and an MIC (Pseudomonas aeruginosa [8]) of 4 µg/mL (≈ 9.42 µM).
